Series [1] can be described thus: Formulated solubility in 20% hydroxypropyl beta cyclodextrin aqueous solution with 5% dextrose. In kind it is physicochemical. To be noted: for solubility at 24 h: aqueous with cosolvent or surfactant or cyclodextrin, thermodynamic from solid, 20% hydroxypropyl beta cyclodextrin aqueous solution with 5% dextrose, 20° C. Here is the method: (§1) For each medium, the saturation of the medium is obtained by adding an excess of investigated compound to a given volume of test medium. The suspension is stirred at 20° C. for 24 h, the supernatant is then isolated and diluted to allow its injection into a chromatographic system. The concentration of the compound in solution for each medium is determined by external standardization.
Solubility was also investigated in a 20% hydroxypropyl beta cyclodextrin aqueous solution with 5% dextrose and the results are shown in Table 4.

In another series the target is T1, FabI from S. aureus (Staphylococcus aureus, UniProt Q6GI75).
T1 construct: made in house
T1 sequence (Q6GI75 1-256): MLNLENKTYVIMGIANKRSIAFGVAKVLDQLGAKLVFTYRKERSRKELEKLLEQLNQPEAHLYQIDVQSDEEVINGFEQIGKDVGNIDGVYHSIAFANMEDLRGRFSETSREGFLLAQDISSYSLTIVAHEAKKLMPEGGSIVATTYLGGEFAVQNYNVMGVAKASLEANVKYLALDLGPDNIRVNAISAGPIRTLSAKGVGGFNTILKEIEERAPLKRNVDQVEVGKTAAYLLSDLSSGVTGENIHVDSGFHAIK
Description: In vitro inhibition of recombinant S. aureus FabI enzyme (fluorescence based assay). In kind it is biochemical. On the procedure: (§2) Compound inhibitory activity of FabI enzyme is measured in vitro by the IC50 determination using a fluorescence based assay.
The protein FabI from S. aureus is prepared and purified using standard methods for recombinant protein expression after cloning of the gene in a prokaryotic expression vector.
(§3) The biochemical activity of the FabI enzyme is assessed using the following method.
The assay buffer “AB” contained 50 mM ADA (N-(2-acetamido)iminodiacetic acid monosodium salt) pH 6.5, 1 m M dithiothreitol, 0.006% Triton-X100 and 50 mM NaCl. The following components are added in a white polystyrene Costar plate (Ref 3912) up to a final volume of 55.5 μL: 1.5 μL DMSO or inhibitor dissolved in DMSO and 54 μL of a FabI/NADPH/NADP+ mixture in AB. […] Fluorescence intensity of NADPH (λex=360 nm, λem=520 nm) is measured immediately after t-O-NAC addition (T0), and approximately 50 min later (T50) by a Fluostar Optima (BMG) so as to achieve ±30% of NADPH conversion. Enzyme activity is calculated by first subtracting T0 signal to T50 and then subtracting background signal (FabI=0). Percentages of inhibition are calculated against untreated samples (Inhibitor=0) and IC50 are fitted to a classical Langmuir equilibrium model using XLFIT (IDBS).

In the next series the target is E. coli FabI enzyme (Escherichia coli, UniProt P0AEK4). In words: In vitro inhibition of recombinant E. coli FabI enzyme. It is filed as biochemical. On the procedure: as §2, §3
Chain of E. coli FabI enzyme (P0AEK4 whole entry): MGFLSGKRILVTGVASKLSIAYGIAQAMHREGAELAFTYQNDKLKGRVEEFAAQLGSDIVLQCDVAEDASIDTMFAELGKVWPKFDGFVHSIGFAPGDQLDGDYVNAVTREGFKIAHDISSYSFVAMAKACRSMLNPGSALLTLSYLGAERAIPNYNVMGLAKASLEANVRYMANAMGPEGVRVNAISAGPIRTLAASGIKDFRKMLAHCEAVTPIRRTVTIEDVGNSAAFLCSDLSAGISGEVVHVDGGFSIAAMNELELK
The assay buffer “AB” contained 50 mM ADA (N-(2-acetamido)iminodiacetic acid monosodium salt) pH 6.5, 1 m M dithiothreitol, 0.006% Triton-X100 and 50 mM NaCl. The following components are added in a white polystyrene Costar plate (Ref 3912) up to a final volume of 55.5 μL: 1.5 μL DMSO or inhibitor dissolved in DMSO and 54 μL of a FabI/NADPH/NADP+ mixture in AB. After 60 min of pre-incubation at room temperature, the reaction is started by addition of 5 μL of trans-2-octenoyl N-acetylcysteamine thioester (t-o-NAC) to a final volume of 60.5 μL. […] Fluorescence intensity of NADPH (λex=360 nm, λem=520 nm) is measured immediately after t-O-NAC addition (T0), and approximately 50 min later (T50) by a Fluostar Optima (BMG) so as to achieve ±30% of NADPH conversion. Enzyme activity is calculated by first subtracting T0 signal to T50 and then subtracting background signal (FabI=0). Percentages of inhibition are calculated against untreated samples (Inhibitor=0) and IC50 are fitted to a classical Langmuir equilibrium model using XLFIT (IDBS).

A further series concerns S. aureus CIP 54.146. In words: MIC determination using broth microdilution method. To be noted: Staphylococcus aureus, CIP54 / MSSA; MSSA CIP 54.146; range over a number of batches; read-out: MIC (μg/ml) (Broth microdilution) S. aureus CIP 54.146. In kind it is cell-based. On the procedure: The compound of the invention is a useful antibacterial agent having a selective spectrum of activity in vitro against bacterial strains relying on FabI and related targets. […] The activity is presented as Minimum Inhibitory Concentration (MIC) expressed in μg/ml and was determined using broth microdilution or Agar dilution methods.
Antibacterial activity was determined on MSSA CIP 54.146 provided by the Centre de Ressources Biologiques de l'Institut Pasteur
This protocol is compliant with Clinical Laboratory Standards Institute (CLSI) methodology as described in M7-A7 document of the CLSI. The compound to be tested is diluted according to a geometric series of reason 2 in pure DMSO. Dilutions are transferred in sterile polystyrene microplates, followed by mid-log phase bacteria in cation-adjusted Muller-Hinton broth (ca-MHB, Fluka, Reference 90922) with a final inoculum of 5×10^5 cfu/ml. Microplates are incubated overnight at 35° C. MIC is defined as the lowest concentration of antimicrobial agent that completely prevents visible bacterial growth. All manipulations, but compound handling (in pure DMSO), are performed under sterile conditions. The final concentration of DMSO in the plates is 2%.
Background: Broth dilution looks for growth in wells or tubes with falling amounts of substance.

The nature of series [2]: Aqueous solubility at pH 7.4 buffer. It is filed as physicochemical. To be noted: for solubility at 24 h: aqueous buffer, thermodynamic from solid, 20° C. On the procedure: as §1
Series [3] relates to Streptococcus and Enterococcus. In words: Activity against other Gram-positive pathogens not dependent upon FabI. In kind it is cell-based.
Series [4] in a line: QT interval in conscious dogs after single intravenous infusion. In kind it is in vivo.
Series [5] in a line: In vivo studies in rats and dogs (adverse effects).
Series [6] is described as follows: Panel of 112 in vitro binding assays and 42 in vitro enzyme assays. To be noted: except human norepinephrine transporter.
The subject of series [7] is MSSA, MRSA, VISA and VRSA strains. Description: In vitro activity against pathogenic S. aureus strains. In kind it is cell-based, Staphylococcus aureus. To be noted: several pathogenic strains. From the text:
(§4) Such increased solubility provides the significant advantage of allowing the compound of the invention to be administered intravenously.

For series [8], the system named is MSSA, MRSA and VISA infections. In words: Murine infection model. In kind it is in vivo.
From the text: as §4

Series [9] can be described thus: Functional observation battery and evaluation of respiration function in rats. It is filed as in vivo. To be noted: compared to vehicle only.
The next series concerns the target hERG (Homo sapiens, UniProt Q12809). Description: hERG tail current amplitude in vitro. In kind it is cell-based. To be noted: after rundown subtraction. (Block of hERG is tested as a sign of cardiac risk.)
In series [10] the target is human norepinephrine transporter (Homo sapiens, UniProt P23975). Description: In vitro binding/enzyme panel: human norepinephrine transporter.
Chain of human norepinephrine transporter (P23975 whole entry): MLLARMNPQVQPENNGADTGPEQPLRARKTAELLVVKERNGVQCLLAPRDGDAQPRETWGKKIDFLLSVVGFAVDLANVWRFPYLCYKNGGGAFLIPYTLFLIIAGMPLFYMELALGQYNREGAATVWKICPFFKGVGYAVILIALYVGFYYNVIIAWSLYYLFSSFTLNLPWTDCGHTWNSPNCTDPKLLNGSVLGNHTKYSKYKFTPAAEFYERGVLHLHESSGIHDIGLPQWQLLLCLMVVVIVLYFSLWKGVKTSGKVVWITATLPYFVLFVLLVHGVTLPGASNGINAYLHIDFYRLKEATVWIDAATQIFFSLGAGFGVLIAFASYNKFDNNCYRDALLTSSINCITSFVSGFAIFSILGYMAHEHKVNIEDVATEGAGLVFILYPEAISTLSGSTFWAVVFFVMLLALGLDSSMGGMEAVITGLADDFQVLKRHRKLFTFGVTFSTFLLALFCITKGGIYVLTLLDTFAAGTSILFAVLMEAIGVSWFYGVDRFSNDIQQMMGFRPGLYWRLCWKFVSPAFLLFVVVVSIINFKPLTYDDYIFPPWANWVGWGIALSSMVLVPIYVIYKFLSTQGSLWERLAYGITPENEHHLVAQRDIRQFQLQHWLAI
The test system of series [11] is target bacterial populations. In words: Resistance and killing profile in target bacterial populations. In kind it is cell-based.
The conditions of series [12]: rats, intravenous; cited from earlier work.

Converted amounts (≈) assume the structure as drawn. Like-named read-outs stand apart in the source and are kept apart here.

The values below come from patent US9272985B2, “Antibacterial hydroxyphenyl compound” (FAB PHARMA S.A.S., priority 2009, dated 2016).

Chain of hERG (Q12809 whole entry): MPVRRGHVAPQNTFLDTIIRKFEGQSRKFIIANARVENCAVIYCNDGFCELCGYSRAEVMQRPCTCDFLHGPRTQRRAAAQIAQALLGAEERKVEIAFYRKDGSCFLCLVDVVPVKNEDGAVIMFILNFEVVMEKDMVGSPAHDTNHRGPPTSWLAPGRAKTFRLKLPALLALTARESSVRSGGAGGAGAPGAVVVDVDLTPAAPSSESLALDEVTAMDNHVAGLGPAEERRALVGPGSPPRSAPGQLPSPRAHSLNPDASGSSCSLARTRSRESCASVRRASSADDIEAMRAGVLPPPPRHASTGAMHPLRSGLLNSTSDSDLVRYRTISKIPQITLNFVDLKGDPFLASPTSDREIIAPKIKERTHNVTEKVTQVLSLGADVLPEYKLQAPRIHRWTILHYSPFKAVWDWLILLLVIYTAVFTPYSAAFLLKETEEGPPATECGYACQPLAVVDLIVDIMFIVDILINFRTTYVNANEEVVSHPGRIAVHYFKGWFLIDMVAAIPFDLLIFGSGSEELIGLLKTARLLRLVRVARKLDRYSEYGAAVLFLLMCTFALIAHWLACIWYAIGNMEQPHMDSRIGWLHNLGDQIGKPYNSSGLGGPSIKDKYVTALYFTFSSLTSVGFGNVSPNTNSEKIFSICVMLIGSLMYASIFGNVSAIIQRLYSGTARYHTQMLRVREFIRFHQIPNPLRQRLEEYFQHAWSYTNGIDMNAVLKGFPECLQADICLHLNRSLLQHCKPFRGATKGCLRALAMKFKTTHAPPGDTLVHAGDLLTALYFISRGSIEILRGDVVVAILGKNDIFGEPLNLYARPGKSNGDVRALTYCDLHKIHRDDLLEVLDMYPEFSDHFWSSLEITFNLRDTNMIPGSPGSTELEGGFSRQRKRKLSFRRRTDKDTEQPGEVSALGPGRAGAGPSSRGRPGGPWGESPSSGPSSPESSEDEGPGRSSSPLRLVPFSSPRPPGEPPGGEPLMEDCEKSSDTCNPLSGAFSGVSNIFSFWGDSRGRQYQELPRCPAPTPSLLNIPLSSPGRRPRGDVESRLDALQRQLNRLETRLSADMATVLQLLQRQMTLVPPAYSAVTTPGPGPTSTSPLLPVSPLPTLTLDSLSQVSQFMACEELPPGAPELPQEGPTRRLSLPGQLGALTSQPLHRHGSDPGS

For `CCc1cc(O)c(Oc2cccnc2F)cc1F` [Comparative Example 2, 5-Ethyl-4-fluoro-2-(2-fluoropyridin-3yloxy)phenol, reference compound], the solubility at 24 h in series [1] came out at 2400 µg/mL (≈ 9550 µM); in series [2], 8 µg/mL (≈ 31.8 µM). Besides, the IC50 at FabI from S. aureus (recombinant S. aureus FabI, range over a number of batches, read-out: FabI Inhibition IC50 (μM) S. aureus) is 0.008 to 0.017 µM; on E. coli FabI enzyme (recombinant E. coli FabI, range over a number of batches, read-out: FabI Inhibition IC50 (μM) E. coli), 0.019 to 0.065 µM. In addition, the MIC in the series on S. aureus CIP 54.146 was 0.063 µg/mL (≈ 0.251 µM).
As to `CCc1cc(O)c(Oc2ccc(C(N)=O)cc2F)cc1F` [Example 1, 4-(4-Ethyl-5-fluoro-2-hydroxyphenoxy)-3-fluorobenzamide], the “Activity against Streptococcus and Enterococcus” value in [3] is “no activity”. In series [4] (after the end of infusion), the “Corrected QT after the end of infusion versus control group” value is “generally lower than in the control group”. In addition, the QT interval prolongation entry in [4] (single intravenous infusion at 25, 50 and 100 mg/kg) is on record as “no QT interval prolongation was observed”. Besides, in series [5], the “Adverse effects during in vivo studies” value is listed as “no major adverse effects were reported”. Moreover, the “Affinity or activity in 112 in vitro binding assays and 42 in vitro enzyme assays” value in series [6] is reported as “devoid of any significant affinity or activity”. Moreover, the “In vitro activity against MSSA, MRSA, VISA and VRSA strains” value in series [7] is “highly active”. For the same compound, the results for the “Fold more soluble than comparative example 2” value in series [1] (20% hydroxypropyl beta cyclodextrin with 5% dextrose) and in series [2] were ~5 fold and “two fold”, respectively. Further, the solubility at 24 h amounted to 11300 µg/mL (≈ 38500 µM) in [1] and 16 µg/mL (≈ 54.6 µM) in series [2]. Besides, the IC50 on FabI from S. aureus is 0.012 to 0.014 µM; at E. coli FabI enzyme it was 0.058 to 0.068 µM. Also, the MIC in the series on S. aureus CIP 54.146 is 0.063 to 0.125 µg/mL (≈ 0.215 to 0.426 µM). Besides, the “In vivo activity in a murine model” value in [8] is listed as “active in vivo”. In series [9], the “Tolerability in functional observation battery and respiration function assays” value was “well tolerated”. At hERG, this compound showed an inhibition at 30 µM of 35.3%. Also, in [10], the “Inhibition of human norepinephrine transporter” value was 88%. Besides, in series [11] (target bacterial populations), the “Type of antibacterial effect” value is “bacteriostatic or slow bactericidal effect”. Besides, the “Spontaneous mutation rate towards drug resistance” value in series [11] (target bacterial populations exposed to the compound) is reported as “approximately 10^−9”. For the same compound, the “Cross resistance with glycopeptides (Vancomycin) and oxazolidinones (Linezolid)” value in [11] (target microbial populations) is on record as “no cross resistance”.
In the case of `Oc1cc(Cl)ccc1Oc1ccc(Cl)cc1Cl` [Triclosan], the LD50 in series [12] is 29 mg/kg.

For orientation: solubility means the dissolved amount per volume that the medium holds. Read a low solubility as little dissolved substance. One may read the IC50 as the point on the concentration scale where inhibition reaches its midpoint. What is called inhibition is the percentage by which the read-out fell short of the control. A lower inhibition goes with a weak effect. For orientation: LD50 means the dose expected to kill half of the subjects tested.
